Data as given in ChEMBL document CHEMBL1201862, “PubChem BioAssay data set” (2004).
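1) Cells in 96-well plates. 2) Compound, 48 h, 5 concentrations. 3) Linear interpolation between surrounding doses. 4) Unreached endpoint = highest concentration. At the GI50, growth is halved.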 Calls of active or inactive are those of the source. No stated cut-off is given here; in the data, active = GI50 up to about 1.1 µM and inactive = higher.

How the values were obtained:
Assay in all cases: NCI-60 cell line screen, 48 h
CCRF-CEM = system: CCRF-CEM
HL-60 = system: HL-60
IGROV-1 = system: IGROV-1
KM12 = system: KM12
NCI-H23 = system: NCI-H23
SF-295 = system: SF-295
SK-MEL-28 = system: SK-MEL-28
SK-MEL-2 = system: SK-MEL-2
SK-MEL-5 = system: SK-MEL-5
SK-OV-3 = system: SK-OV-3
SN12C = system: SN12C
SW-620 = system: SW-620
TK-10 = system: TK-10
U-251 = system: U-251
UACC-62 = system: UACC-62
K562 = system: K562
RXF 393 = system: RXF 393

Measured: GI50

CC(C)C(Sc1nc(-c2ccccc2)c(-c2ccccc2)[nH]1)C(=O)N/N=C/c1ccc([N+](=O)[O-])cc1 (configuration not stated)
inactive: CCRF-CEM 4.05 µM | HL-60 13.6 µM | IGROV-1 18.2 µM | KM12 10.9 µM | NCI-H23 16.7 µM | SF-295 15.8 µM | SK-MEL-28 15.5 µM | SK-MEL-2 12.5 µM | SK-MEL-5 9.23 µM | SK-OV-3 22.8 µM | SN12C 12.5 µM | SW-620 14.3 µM | TK-10 30.1 µM | U-251 14.6 µM | UACC-62 15.6 µM

COc1cc(CC(C(=O)O)C(=O)O)c(OC)cc1CC(C(=O)O)C(=O)O
inactive: CCRF-CEM > 100 µM | HL-60 > 100 µM | IGROV-1 > 100 µM | K562 > 100 µM | KM12 > 100 µM | NCI-H23 > 100 µM | RXF 393 > 100 µM | SF-295 > 100 µM | SK-MEL-5 > 100 µM | SK-OV-3 > 100 µM | SN12C > 100 µM | SW-620 > 100 µM | TK-10 > 100 µM | U-251 > 100 µM | UACC-62 > 100 µM

CC(C)(C)c1cc(COc2c3sc(=S)sc3c(OCc3cc(C(C)(C)C)cc(C(C)(C)C)c3)c3sc(=S)sc23)cc(C(C)(C)C)c1
inactive: CCRF-CEM > 100 µM | HL-60 > 100 µM | IGROV-1 > 100 µM | K562 > 100 µM | NCI-H23 > 100 µM | RXF 393 > 100 µM | SF-295 > 100 µM | SK-MEL-28 > 100 µM | SK-MEL-5 > 100 µM | SK-OV-3 > 100 µM | SN12C > 100 µM | SW-620 > 100 µM | TK-10 > 100 µM | U-251 > 100 µM | UACC-62 > 100 µM

COc1ccc2nc(NC(=O)C(=O)NNC(=O)c3ccncc3)sc2c1
inactive: CCRF-CEM > 100 µM | HL-60 > 100 µM | IGROV-1 > 100 µM | K562 > 100 µM | NCI-H23 > 100 µM | RXF 393 > 100 µM | SF-295 > 100 µM | SK-MEL-28 > 100 µM | SK-MEL-5 > 100 µM | SK-OV-3 > 100 µM | SN12C > 100 µM | SW-620 > 100 µM | TK-10 > 100 µM | U-251 > 100 µM | UACC-62 > 100 µM

O=C1OC(c2ccccc2)=N/C1=C/C=C/c1ccco1
inactive: CCRF-CEM > 100 µM | IGROV-1 > 100 µM | K562 > 100 µM | KM12 > 100 µM | NCI-H23 > 100 µM | RXF 393 > 100 µM | SF-295 > 100 µM | SK-MEL-28 > 100 µM | SK-MEL-2 > 100 µM | SK-MEL-5 > 100 µM | SK-OV-3 > 100 µM | SN12C > 100 µM | SW-620 > 100 µM | TK-10 > 100 µM | U-251 > 100 µM | UACC-62 > 100 µM

O=C1c2c(nc3ccccc3c2-c2ccccc2)CN1Nc1ccccc1
inactive: CCRF-CEM > 100 µM | HL-60 45.3 µM | IGROV-1 > 100 µM | K562 > 100 µM | KM12 > 100 µM | SK-MEL-2 > 100 µM | SK-MEL-5 > 100 µM | SK-OV-3 > 100 µM | SN12C > 100 µM | SW-620 > 100 µM | TK-10 > 100 µM | UACC-62 > 100 µM

COc1ccc(/C=c2\sc3n(c2=O)C(N)=C(C#N)C(c2ccc(OC)cc2)C=3c2nc3ccccc3[nH]2)cc1 (configuration not stated)
inactive: CCRF-CEM 39.2 µM | HL-60 41.2 µM | IGROV-1 44.7 µM | K562 > 100 µM | KM12 14.2 µM | NCI-H23 5.02 µM | SK-MEL-28 18.5 µM | SK-MEL-2 28.6 µM | SK-MEL-5 16.9 µM | SN12C 78.7 µM | SW-620 27.7 µM | TK-10 16.1 µM | U-251 18 µM | UACC-62 79.4 µM
